Test results published in patent EP4603105A1, “PHARMACEUTICAL COMPOSITION CONTAINING CYCLIC COMPOUND HAVING SELECTIVE KRAS INHIBITORY EFFECT AGAINST HRAS AND NRAS” (CHUGAI SEIYAKU KABUSHIKI KAISHA, priority 2022, dated 2024).
Where a SMILES comes first, the peptide text is derived from it. Bridges are numbered along the chain shown (N, C = ends). [ ]: non-standard residue; d: D form. The star is where a group is joined. hPhe(3,5-F2-4-CF3) = N[C@@H](CCc1cc(F)c(C(F)(F)F)c(F)c1)C(=O)O; hPhe(3-Cl-4-CF3) = N[C@@H](CCc1ccc(C(F)(F)F)c(Cl)c1)C(=O)O; NPrPhe(4-CF3) = CCCN[C@@H](Cc1ccc(C(F)(F)F)cc1)C(=O)O; NEtPhe(4-CF3) = CCN[C@@H](Cc1ccc(C(F)(F)F)cc1)C(=O)O; NEtPhe(4-Me) = CCN[C@@H](Cc1ccc(C)cc1)C(=O)O; NMeGly(cPent) = CN[C@H](C(=O)O)C1CCCC1; Pro(4,4-F2) = O=C(O)[C@@H]1CC(F)(F)CN1; αMeI = CC[C@H](C)[C@](C)(N)C(=O)O; Hyp = O=C(O)[C@@H]1C[C@@H](O)CN1; NMeD = CN[C@@H](CC(=O)O)C(=O)O; NMeL = CN[C@@H](CC(C)C)C(=O)O; Morpholide = C1CN(*)CCO1; NMeA = CN[C@@H](C)C(=O)O; Ac5c = NC1(C(=O)O)CCCC1; Aze = O=C(O)[C@@H]1CCN1; Ethyl(2,2-F2) = FC(F)C*; Ac4c = NC1(C(=O)O)CCC1; Ac3c = NC1(C(=O)O)CC1; NEtG = CCNCC(=O)O; Sar = CNCC(=O)O

Experiments:
[1] = biological target: GDP-bound NRAS wild-type protein (Homo sapiens, UniProt P01111); experiment: Binding to NRAS by surface plasmon resonance (SPR), KD and KD ratio to KRAS
Sequence of GDP-bound NRAS wild-type protein (P01111 whole entry): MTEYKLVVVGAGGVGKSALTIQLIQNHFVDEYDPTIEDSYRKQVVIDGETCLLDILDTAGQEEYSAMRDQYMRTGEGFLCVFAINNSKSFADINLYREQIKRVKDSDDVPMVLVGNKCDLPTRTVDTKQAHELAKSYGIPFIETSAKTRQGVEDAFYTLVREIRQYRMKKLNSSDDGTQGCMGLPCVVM
Method in brief: (§1)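 Biotinylated GDP-bound RAS was captured at about 100–300 RU. Running buffer: HBS pH 7.4, 10 mM MgCl2, 10 µM GDP, 1 mM DTT, 0.01% Tween 20, 4% DMSO.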

[2] = biological target: HRAS wild-type protein (Homo sapiens, UniProt P01112); experiment: Binding to HRAS by surface plasmon resonance (SPR), KD and KD ratio to KRAS
Sequence of HRAS wild-type protein (P01112 whole entry): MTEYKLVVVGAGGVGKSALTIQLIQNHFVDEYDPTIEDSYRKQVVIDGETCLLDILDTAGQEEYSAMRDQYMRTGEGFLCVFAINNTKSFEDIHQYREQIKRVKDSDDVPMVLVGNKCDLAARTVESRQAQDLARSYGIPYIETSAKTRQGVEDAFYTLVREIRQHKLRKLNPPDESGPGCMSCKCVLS
Method in brief: as §1

[3] = tested on: human lung cancer strain NCI-H441; assay type: cell-based
Method in brief: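 Step one: dispense the test compound in serial DMSO dilutions. Step three: add the reagent and measure […].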

[4] = ratio of the KD value with respect to GDP-bound NRAS wild-type protein to the KD value with respect to KRAS
[5] = ratio of the KD value with respect to HRAS wild-type protein to the KD value with respect to KRAS
[6] = ratio of KD for GDP-bound NRAS wild-type protein to KD for KRAS
[7] = ratio of KD for HRAS wild-type protein to KD for KRAS

Row | Compound | IC50 [3] [nM] | NRAS /KRAS [1, 4] | HRAS /KRAS [2, 5] | NRAS /KRAS ([1]; ratio of KD value for GDP-bound NRAS wild-type protein to KD value for KRAS (SPR)) | HRAS /KRAS ([2]; ratio of KD value for HRAS wild-type protein to KD value for KRAS (SPR)) | NRAS /KRAS [1, 6] | HRAS /KRAS [2, 7]
1 | CC[C@H](C)[C@@H]1NC(=O)[C@H](CC(C)C)N(C)C(=O)C[C@@H](C(=O)N2CCOCC2)N(C)C(=O)[C@H](C2CCCC2)N(C)C(=O)C(C)(C)NC(=O)[C@@H]2CCCN2C(=O)[C@H](CCc2cc(F)c(C(F)(F)F)c(F)c2)NC(=O)CN(C)C(=O)[C@H](Cc2ccc(C(F)(F)F)cc2)N2CCCC[C@@H](C2=O)N(C)C(=O)CN(C)C1=O [PP0565] | 11.5 | C (A compound having a KD ratio of 0.1 or more and less than 3 is denoted as C) | B (a compound having 3 or more and less than 10 is denoted as B) | – | – | – | –
2 | CCCN1C(=O)CN(C)C(=O)CN(C)C(=O)[C@H]([C@@H](C)CC)NC(=O)[C@H](CC(C)C)N(C)C(=O)C[C@@H](C(=O)N2CCOCC2)N(C)C(=O)[C@H](C2CCCC2)N(C)C(=O)C2(CCCC2)NC(=O)[C@@H]2C[C@@H](OCC(F)F)CN2C(=O)[C@H](CCc2ccc(C(F)(F)F)c(Cl)c2)NC(=O)CN(C)C(=O)[C@@H]1Cc1ccc(C(F)(F)F)cc1 [PP0246] ([NMeL]I[Sar][Sar][NPrPhe(4-CF3)][Sar][hPhe(3-Cl-4-CF3)][Hyp](Ethyl(2,2-F2))[Ac5c][NMeGly(cPent)][NMeD]-Morpholide; lactam N-11) | 1.8 | – | – | – | – | B (a compound having 3 or more and less than 10 is denoted as B) | C (A compound having a KD ratio of 0.1 or more and less than 3 is denoted as C)
3 | CCC(CC)[C@H]1C(=O)N(C)[C@H](C(=O)N(C)C)CC(=O)N(C)[C@H]2CCC/C=C/c3ccc(cc3)C[C@@H](C(=O)N(C)CC(=O)N[C@@H](CCc3cc(F)c(C(F)(F)F)c(F)c3)C(=O)N3CCC[C@H]3C(=O)NC3(CC(C)(C)C3)C(=O)N1C)N1CC/C=C\C[C@@H](C1=O)N(C)C(=O)CN(C)C(=O)[C@H]([C@@H](C)CC)NC2=O [PP2600] | 2.9 | – | – | – | – | A (a compound having 10 or more and less than 20 is denoted as A) | A (a compound having 10 or more and less than 20 is denoted as A)
4 | CC[C@H](C)[C@@H]1NC(=O)[C@H](CC(C)C)N(C)C(=O)C[C@@H](C(=O)N2CCOCC2)N(C)C(=O)[C@H](C2CCCC2)N(C)C(=O)C2(CC2)NC(=O)[C@@H]2CCCN2C(=O)[C@H](CCc2ccc(C(F)(F)F)c(Cl)c2)NC(=O)CN(C)C(=O)[C@H](Cc2ccc(C(F)(F)F)cc2)N(CC)C(=O)[C@@H]2CCN2C(=O)[C@H](C)N(C)C1=O [PP0220] ([NMeL]I[NMeA][Aze][NEtPhe(4-CF3)][Sar][hPhe(3-Cl-4-CF3)]P[Ac3c][NMeGly(cPent)][NMeD]-Morpholide; lactam N-11) | 7.7 | – | – | – | – | C (A compound having a KD ratio of 0.1 or more and less than 3 is denoted as C) | C (A compound having a KD ratio of 0.1 or more and less than 3 is denoted as C)
5 | CCC[C@H]1C(=O)N[C@@H]([C@@H](C)CC)C(=O)N(C2CC2)CC(=O)N(C)[C@H]2C/C=C\CCN(C2=O)[C@@H](Cc2ccc(C(F)(F)F)cc2)C(=O)N(C)CC(=O)N[C@@H](CCc2cc(F)c(C(F)(F)F)c(F)c2)C(=O)N2C[C@H](OCC)C[C@H]2C(=O)N(C)C2(CCC2)C(=O)N(C)[C@@H](C2CCCC2)C(=O)N(C)[C@H](C(=O)N2CCCCC2)CC(=O)N1C [PP3110] | 69.9 | – | – | – | – | A (a compound having 10 or more and less than 20 is denoted as A) | A (a compound having 10 or more and less than 20 is denoted as A)
6 | CC[C@H](C)[C@@H]1NC(=O)[C@H](CC(C)C)N(C)C(=O)C[C@@H](C(=O)N2CCOCC2)N(C)C(=O)[C@H](C2CCCC2)N(C)C(=O)C2(CCCC2)NC(=O)[C@@H]2CCCN2C(=O)[C@H](CCc2ccc(C(F)(F)F)c(Cl)c2)NC(=O)CN(CC)C(=O)[C@H](Cc2ccc(C)cc2)N(CC)C(=O)[C@@H]2CCN2C(=O)[C@H](C)N(C)C1=O [PP0006] ([NMeL]I[NMeA][Aze][NEtPhe(4-Me)][NEtG][hPhe(3-Cl-4-CF3)]P[Ac5c][NMeGly(cPent)][NMeD]-Morpholide; lactam N-11) | 20.6 | – | – | – | – | C (A compound having a KD ratio of 0.1 or more and less than 3 is denoted as C) | C (A compound having a KD ratio of 0.1 or more and less than 3 is denoted as C)
7 | CCCN1C(=O)CN(C)C(=O)CN(C)C(=O)[C@H]([C@@H](C)CC)NC(=O)[C@H](CC(C)C)N(C)C(=O)C[C@@H](C(=O)N(C)C)N(C)C(=O)[C@H](C2CCCC2)N(C)C(=O)[C@](C)([C@@H](C)CC)NC(=O)[C@@H]2CCCN2C(=O)[C@H](CCc2cc(F)c(C(F)(F)F)c(F)c2)NC(=O)CN(C)C(=O)[C@@H]1Cc1ccc(C(F)(F)F)cc1 [PP0736] ([NMeL]I[Sar][Sar][NPrPhe(4-CF3)][Sar][hPhe(3,5-F2-4-CF3)]P[αMeI][NMeGly(cPent)][NMeD]-NMe2; lactam N-11) | 130 | B (a compound having 3 or more and less than 10 is denoted as B) | C (A compound having a KD ratio of 0.1 or more and less than 3 is denoted as C) | – | – | – | –

Second part, led by results:

Row | IC50 [3] [nM] | Compound | NRAS /KRAS [1, 4] | HRAS /KRAS [2, 5] | NRAS /KRAS ([1]; ratio of KD value for GDP-bound NRAS wild-type protein to KD value for KRAS (SPR)) | HRAS /KRAS ([2]; ratio of KD value for HRAS wild-type protein to KD value for KRAS (SPR)) | NRAS /KRAS [1, 6] | HRAS /KRAS [2, 7]
8 | 0.9 | CCCN1C(=O)[C@@H]2CCN2C(=O)CN(C)C(=O)[C@H]([C@@H](C)CC)NC(=O)[C@H](CC(C)C)N(C)C(=O)C[C@@H](C(=O)N(C)C)N(C)C(=O)[C@H](C2CCCC2)N(C)C(=O)C2(CCC2)NC(=O)[C@@H]2CC(F)(F)CN2C(=O)[C@H](CCc2ccc(C(F)(F)F)c(Cl)c2)NC(=O)CN(C)C(=O)[C@@H]1Cc1ccc(C(F)(F)F)cc1 [PP0443] ([NMeL]I[Sar][Aze][NPrPhe(4-CF3)][Sar][hPhe(3-Cl-4-CF3)][Pro(4,4-F2)][Ac4c][NMeGly(cPent)][NMeD]-NMe2; lactam N-11) | C (A compound having a KD ratio of 0.1 or more and less than 3 is denoted as C) | C (A compound having a KD ratio of 0.1 or more and less than 3 is denoted as C) | – | – | – | –
9 | 20.9 | CCO[C@@H]1C[C@H]2C(=O)NC3(CC(F)(F)C3)C(=O)N(C)[C@@H](C3CCCC3)C(=O)N3CCC[C@@H]3CC(=O)N(C)[C@@H](CC3CC3)C(=O)N[C@@H]([C@@H](C)CC)C(=O)N(C)CC(=O)N(C)[C@H]3C/C=C\CCN(C3=O)[C@@H](Cc3ccc(C(F)(F)F)cc3)C(=O)N(C)CC(=O)N[C@@H](CCc3cc(F)c(C(F)(F)F)c(F)c3)C(=O)N2C1 [PP1615] | – | – | B (a compound having 3 or more and less than 10 is denoted as B) | B (a compound having 3 or more and less than 10 is denoted as B) | – | –
10 | 19.3 | CCO[C@@H]1C[C@H]2C(=O)NC3(CC(C)(C)C3)C(=O)N(C)[C@@H](C(CC)CC)C(=O)N(C)[C@H](C(=O)N(C)C)CC(=O)N(C)[C@H]3CCCCC/C=C/c4ccc(cc4)C[C@@H](C(=O)N(C)CC(=O)N[C@@H](CCc4ccc(Cl)c(Cl)c4)C(=O)N2C1)N1CC/C=C\C[C@@H](C1=O)N(C)C(=O)CN(C)C(=O)[C@H]([C@@H](C)CC)NC3=O [PP3050] | – | – | – | – | AA (a compound having 20 or more is denoted as AA) | A (a compound having 10 or more and less than 20 is denoted as A)
11 | 133 | CCO[C@@H]1C[C@H]2C(=O)NC3(CCC3)C(=O)N(C)[C@@H](C3CCCC3)C(=O)N(C)[C@H](C(=O)N(C)C)CC(=O)N(C)[C@@H](CC3CCCC3)C(=O)N[C@@H]([C@@H](C)CC)C(=O)N(C)CC(=O)N(C)[C@H]3C/C=C\CCN(C3=O)[C@@H](Cc3ccc(C)cc3)C(=O)N(C)CC(=O)N[C@@H](CCc3ccc(C4CC4)c(C)c3)C(=O)N2C1 [PP2685] | – | – | – | – | A (a compound having 10 or more and less than 20 is denoted as A) | A (a compound having 10 or more and less than 20 is denoted as A)
